Source: US10492518B2, “Blood lipid-lowering composition, method for preparing the same and use thereof” (INFINITUS (CHINA) COMPANY LTD., priority 2018, dated 2019)

Test system: mixed hyperlipidemia model in SD rat
Test: Test of the blood lipid-lowering efficacy: serum TC, TG, HDL-C, LDL-C and apo-A1 after 30 days oral administration
Type: in vivo
Details: positive control, atorvastatin calcium 0.83 mg/Kg oral, high fat diet SD rats
Method: Experiment object: compositions of examples 1 to 4, single component group (500 mg of echium seed oil), and two positive control groups: fish oil group (180 mg of EPA and 120 mg of DHA in each 1000 mg oil fish, purchased from Amway), and atorvastatin calcium group (each tablet was 20 mg containing 10 mg of active ingredient atorvastatin calcium, purchased from Pfizer Pharmaceutical Co., Ltd.).
Reference was made to the test method of adjunctive blood lipid-lowering function in the Technical specification for health care food inspection and evaluation. The SPF grade male SD rats were chosen as the experimental animals. After the adaptation period, an animal model of mixed hyperlipidemia was established, and the rats were randomly divided into groups according to the TC level.
There were three dosage groups, two positive control groups, one blank control group and one model control group. In low-dosage group, the dosage of the test sample was equal to 5 times ([…]) of the recommended amount for human; for the other two dosage groups, the dosages were respectively equal to 10 times (333.33 mg/kg) and 25 times (833.33 mg/kg) of the recommended amount for human. The dosage of the positive control group was equal to 5 times of the recommended amount for human (fish oil: 150 mg/Kg; atorvastatin calcium 0.83 mg/Kg). The blank control group and the model control group were administered with distilled water of the same volume by intragastric gavage. Each of the groups was weighed regularly. 30 days after the administration, blood samples were collected from the rats without fasting, and the serums were separated. TC (total cholesterol), TG (total triglyceride), (high-density lipoprotein cholesterol) and apo-A1 (apolipoprotein A1) were tested. The methods were illustrated in details hereinafter.
Adaptation period: in a barrier system the rats were fed for regular feed and observed for 5 to 7 days.
The rats were randomly divided into 22 groups according to the weight, 6 rats per group. One group of rats was fed with regular feed as the blank control group. The other 21 groups were fed with high fat diet as the model control group. All rats were weighed once a week.
20 days after the model control groups were fed with high fat diet, blood samples (1 to 1.5 mL of blood from the tail vein) were collected from the rats of the blank control group and the model control group without fasting. After the blood collection, the serum were quickly separated and transferred to a new centrifuge tube, and then cryopreserved at −20° C. for test. ELISA test kits for cholesterol, triglyceride, HDL-cholesterol and LDL-cholesterol were used to test the levels of TC, TG, LDL-C and HDL-C in the rat serum. […]

`CC(C)c1c(C(=O)Nc2ccccc2)c(-c2ccccc2)c(-c2ccc(F)cc2)n1CC[C@@H](O)C[C@@H](O)CC(=O)[O-].CC(C)c1c(C(=O)Nc2ccccc2)c(-c2ccccc2)c(-c2ccc(F)cc2)n1CC[C@@H](O)C[C@@H](O)CC(=O)[O-].[Ca+2]` [Atorvastatin Calcium, atorvastatin calcium] was tested, and the “Serum HDL-C, Mean Value ± Standard Deviation” value was 919.74 ± 150.63 µmol/L, the “Serum LDL-C, Mean Value ± Standard Deviation” value was 853.24 ± 236.19 µmol/L and the “Serum total cholesterol (TC), Mean Value ± Standard Deviation” value was 1117.14 ± 171.07 µmol/L. The “Serum triglyceride (TG), Mean Value ± Standard Deviation” value was 189.71 ± 45.83 µmol/L.
